Our source for the Ki values is BindingDB's records for doi:10.1073/pnas.83.13.4918 (Merck Sharp & Dohme Research Laboratories, 1986).

The target of experiment [1] is GABA(A) receptor-associated protein (Sus scrofa, UniProt D7RA28).
Another experiment concerns the target T1, Cholecystokinin (Rattus norvegicus, UniProt P01355).
T1 sequence (P01355 whole entry): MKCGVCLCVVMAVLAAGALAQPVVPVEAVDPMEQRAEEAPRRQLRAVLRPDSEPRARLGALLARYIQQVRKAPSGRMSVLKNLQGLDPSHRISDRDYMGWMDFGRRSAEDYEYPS

The target in experiment [2] is Gamma-aminobutyric acid receptor subunit alpha-1 (Rattus norvegicus, UniProt P62813).
Chain of Gamma-aminobutyric acid receptor subunit alpha-1 (P62813 whole entry): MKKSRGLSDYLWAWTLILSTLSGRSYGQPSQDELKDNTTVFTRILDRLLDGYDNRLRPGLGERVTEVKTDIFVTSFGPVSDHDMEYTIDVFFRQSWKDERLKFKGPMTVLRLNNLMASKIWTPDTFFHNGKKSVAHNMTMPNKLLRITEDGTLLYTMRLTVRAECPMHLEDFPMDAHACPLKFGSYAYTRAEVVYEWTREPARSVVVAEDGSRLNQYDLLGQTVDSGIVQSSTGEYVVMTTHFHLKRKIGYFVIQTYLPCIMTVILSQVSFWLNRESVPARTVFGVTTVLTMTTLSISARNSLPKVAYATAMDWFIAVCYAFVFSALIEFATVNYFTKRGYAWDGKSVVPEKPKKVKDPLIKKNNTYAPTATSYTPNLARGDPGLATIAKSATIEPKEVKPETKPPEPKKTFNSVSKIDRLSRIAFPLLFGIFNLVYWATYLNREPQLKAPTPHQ

A word on the Ki: it is a dissociation constant, usually derived from enzyme kinetics or from competition with a known ligand. A high value points to weaker binding.

Where a SMILES comes first, the peptide text is derived from it. [ ]: non-standard residue; d: D form. The star is where a group is joined. sY = N[C@@H](Cc1ccc(OS(=O)(=O)O)cc1)C(=O)O; Cbz = O=C(OCc1ccccc1)*

Chain of GABA(A) receptor-associated protein (D7RA28 whole entry): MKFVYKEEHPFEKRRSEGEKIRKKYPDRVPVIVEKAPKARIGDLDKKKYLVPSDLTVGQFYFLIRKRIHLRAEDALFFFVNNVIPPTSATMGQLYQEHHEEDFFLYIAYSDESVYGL

Take `CN1C(=O)C(NC(=O)c2cc3ccccc3[nH]2)N=C(c2ccccc2)c2cc(F)ccc21` (centres undefined) [CCK antagonist synthetic 22]: the inhibition constant Ki in experiment [1] worked out at 7800 nM; on Cholecystokinin, 1.4 nM. For `CN1C(=O)[C@H](NC(=O)c2cc3ccccc3[nH]2)N=C(c2ccccc2)c2ccccc21`, the Ki in experiment [1] is > 10000 nM. On to `O=C1Nc2ccc(Cl)cc2C(c2ccccc2)=N[C@H]1Cc1c[nH]c2ccccc12` [CCK antagonist synthetic 6], for which the values for the Ki (in experiment [2]; at Cholecystokinin) were 5600 nM and > 10000 nM, respectively.

Regarding `Cc1nnc2n1-c1ccccc1C(c1ccccc1F)=NC2Cc1c[nH]c2ccccc12` (centres undefined), the Ki in experiment [1] came out at 800 nM; at Cholecystokinin it was 300 nM. Turning to `CN1C(=O)[C@@H](NC(=O)c2cc3ccccc3[nH]2)N=C(c2ccccc2)c2ccccc21` [1H-Indole-2-carboxylic acid (1-methyl-2-oxo-5-phenyl-2,3-dihydro-1H-benzo[e][1,4]diazepin-3-yl)-amide: 0.1C4H10O. 0.15CH2Cl2], the Ki in experiment [1] was > 10000 nM.

For `CC(=O)NC1N=C(c2ccccc2F)c2ccccc2NC1=O` (centres undefined) [CCK antagonist synthetic 16], the Ki on Cholecystokinin is > 10000 nM. Take `O=C1Nc2ccccc2C(c2ccccc2F)=N[C@@H]1Cc1c[nH]c2ccccc12` [CCK antagonist synthetic 9]: the Ki is > 10000 nM in experiment [1] and 500 nM at Cholecystokinin. In the case of `CSCC[C@H](NC(=O)[C@H](Cc1ccc(OS(=O)(=O)O)cc1)NC(=O)OCc1ccccc1)C(=O)NCC(=O)N[C@@H](Cc1c[nH]c2ccccc12)C(=O)N[C@@H](CCSC)C(=O)N[C@@H](CC(=O)O)C(N)=O` [Benzyloxycarbonyl CCK(27-32)NH2] (Cbz-[sY]MGWMD-NH2), the Ki on Cholecystokinin was 3500 nM. Take `O=C(O)CN1C(=O)[C@@H](Cc2c[nH]c3ccccc23)N=C(c2ccccc2F)c2ccccc21` [CCK antagonist synthetic 13]: the Ki is > 10000 nM in experiment [1] and 300 nM on Cholecystokinin. Take `O=C1Nc2ccc(Cl)cc2C(c2ccccc2)=N[C@@H]1Cc1c[nH]c2ccccc12`: the Ki in experiment [2] is > 10000 nM; at Cholecystokinin, 3400 nM. For the molecule `O=C(NC1N=C(c2ccccc2)c2ccccc2NC1=O)c1cc2ccccc2[nH]1` (centres undefined), the Ki in experiment [2] is > 10000 nM; at Cholecystokinin it was 4.7 nM. `O=C(O)CN1C(=O)C(NC(=O)c2cc3ccccc3[nH]2)N=C(c2ccccc2)c2ccccc21` (centres undefined) [CCK antagonist synthetic 20]: the Ki in experiment [1] was > 10000 nM; at Cholecystokinin, 1.4 nM. As for `O=C(NC1N=C(c2ccccc2F)c2ccccc2NC1=O)c1cc2ccccc2[nH]1` (centres undefined), the inhibition constant (Ki) in experiment [1] was 3000 nM; at Cholecystokinin it was 2.1 nM. For `CN1C(=O)[C@@H](Cc2c[nH]c3ccccc23)N=C(c2ccccc2F)c2ccccc21` [CCK antagonist synthetic 11], the Ki is > 10000 nM in experiment [1] and 270 nM on Cholecystokinin. Take `Cc1ccc2c(C(=O)NC3N=C(c4ccccc4F)c4ccccc4NC3=O)c[nH]c2c1` (centres undefined) [CCK antagonist synthetic 15]: the Ki on Cholecystokinin is 1100 nM. This lies in the single-digit micromolar range. For the molecule `O=C1Nc2ccccc2C(c2ccccc2)=N[C@@H]1Cc1c[nH]c2ccccc12` [CCK antagonist synthetic 8], the Ki is > 10000 nM in experiment [2] and 1200 nM on Cholecystokinin. `CN1C(=O)[C@@H](Cc2c[nH]c3ccccc23)N=C(c2ccccc2)c2cc(Cl)ccc21` [CCK antagonist synthetic 7] registered a Ki at Cholecystokinin of 1400 nM. This lies in the single-digit micromolar range. Take `O=C(NC(Cc1c[nH]c2ccccc12)C(=O)O)c1ccc(Cl)cc1` (centres undefined): the Ki at Cholecystokinin is > 10000 nM.
